# Assay results: patent US7214675B2, “Urea substituted imidazoquinoline ethers” (3M Innovative Properties Company, priority 2000, dated 2007)
# Experiments:
# [1] = tested on: interferon (α) induction in human peripheral blood mononuclear cells (PBMC); experiment: Cytokine induction in human cells: interferon (α) secreted by PBMC, ELISA; format: cell-based; parameters: key to Lowest Effective Concentration (μM) Interferon: A “*” indicates that no induction was seen at any of the tested concentrations; generally the highest concentration tested was 10 or 30 μM; conditions: lowest concentration found to induce interferon, incubated 18 to 24 hours at 37° C.
# Excerpt: (§1) An in vitro human blood cell system is used to assess cytokine induction. Activity is based on the measurement of interferon and tumor necrosis factor (α) (IFN and TNF, respectively) secreted into culture media as described by Testerman et. al. In “Cytokine Induction by the Immunomodulators Imiquimod and S-27609”, Journal of Leukocyte Biology, 58, 365–372 (September, 1995).
# (§2) Whole blood from healthy human donors is collected by venipuncture into EDTA vacutainer tubes. Peripheral blood mononuclear cells (PBMC) are separated from whole blood by density gradient centrifugation using Histopaque®-1077. Blood is diluted 1:1 with Dulbecco's Phosphate Buffered Saline (DPBS) or Hank's Balanced Salts Solution (HBSS). The PBMC layer is collected and washed twice with DPBS or HBSS and resuspended at 4×10^6 cells/mL in RPMI complete. The PBMC suspension is added to 48 well flat bottom sterile tissue culture plates (Costar, Cambridge, Mass. or Becton Dickinson Labware, Lincoln Park, N.J.) containing an equal volume of RPMI complete media containing test compound.
# (§3) The compounds are solubilized in dimethyl sulfoxide (DMSO). The DMSO concentration should not exceed a final concentration of 1% for addition to the culture wells. The compounds are generally tested at concentrations ranging from 30–0.014 μM.
# (§4) The solution of test compound is added at 60 μM to the first well containing RPMI complete and serial 3 fold dilutions are made in the wells. The PBMC suspension is then added to the wells in an equal volume, bringing the test compound concentrations to the desired range (30–0.014 μM). The final concentration of PBMC suspension is 2×10^6 cells/mL. The plates are covered with sterile plastic lids, mixed gently and then incubated for 18 to 24 hours at 37° C. in a 5% carbon dioxide atmosphere.
# (§5) Following incubation the plates are centrifuged for 10 minutes at 1000 rpm (˜200×g) at 4° C. The cell-free culture supernatant is removed with a sterile polypropylene pipet and transferred to sterile polypropylene tubes. Samples are maintained at −30 to −70° C. until analysis. The samples are analyzed for interferon (α) by ELISA and for tumor necrosis factor (α) by ELISA or IGEN Assay
# Interferon (α) concentration is determined by ELISA using a Human Multi-Species kit from PBL Biomedical Laboratories, New Brunswick, N.J. Results are expressed in pg/mL.
# (§6) The table below lists the lowest concentration found to induce interferon and the lowest concentration found to induce tumor necrosis factor for each compound.
# [2] = tested on: tumor necrosis factor (α) induction in human peripheral blood mononuclear cells (PBMC); experiment: Cytokine induction in human cells: tumor necrosis factor (α) secreted by PBMC, ELISA or IGEN assay; format: cell-based; parameters: key to Lowest Effective Concentration (μM) Tumor Necrosis Factor: A “*” indicates that no induction was seen at any of the tested concentrations; generally the highest concentration tested was 10 or 30 μM; conditions: lowest concentration found to induce tumor necrosis factor, incubated 18 to 24 hours at 37° C.
# Excerpt: as §1, §2, §3, §4, §5
# Tumor necrosis factor (α) (TNF) concentration is determined using ELISA kits available from Biosource International, Camarillo, Calif. Alternately, the TNF concentration can be determined by Origen® M-Series Immunoassay and read on an IGEN M-8 analyzer from IGEN International, Gaithersburg, Md. The immunoassay uses a human TNF capture and detection antibody pair from Biosource International, Camarillo, Calif. Results are expressed in pg/mL.
# as §6
SMILES,melting point,minimal effective concentration [1],minimal effective concentration [2],Lowest Effective Concentration (μM) Tumor Necrosis Factor [2],Lowest Effective Concentration (μM) Interferon [1]
"COCCc1nc2c(N)nc3ccccc3c2n1CCOCCN(C)C(=O)N1CCOCC1 [Example 6, N-(2-{2-[4-amino-2-(2-methoxyethyl)-1H-imidazo[4,5-c]quinolin-1-yl]ethoxy}ethyl)-N-methylmorpholine-4-carboxamide]",121.8 to 122.3 °C,–,–,–,–
Nc1nc2ccccc2c2c1ncn2CCOCCNC(=O)NC1CCCCC1 [Example 39],–,10 µM,10 µM,–,–
CCCCc1nc2c(N)nc3ccccc3c2n1CCOCCNC(=O)Nc1ccc(N(C)C)cc1 [Example 16],–,0.0001 µM,10 µM,–,–
CCC(COCCC1CCN(C(=O)Nc2cccc(SC)c2)CC1)n1cnc2c(N)nc3ccccc3c21 (stereo not drawn) [Example 31],–,1 µM,10 µM,–,–
"COCCc1nc2c(N)nc3c(c2n1CCOCCN(C)C(=O)Nc1ccccc1)CCCC3 [Example 4, N-(2-{2-[4-amino-2-(2-methoxyethyl)-6,7,8,9-tetrahydro-1H-imidazo[4,5-c]quinolin-1-yl]ethoxy}ethyl)-N-methyl-N′-phenylurea]",167.7 to 170 °C,–,–,–,–
CCC(COCCC1CCN(C(=O)Nc2cccc(OC)c2)CC1)n1cnc2c(N)nc3ccccc3c21 (stereo not drawn) [Example 28],–,0.1 µM,1 µM,–,–
CCCCc1nc2c(N)nc3ccccc3c2n1CCOCCNC(=O)Nc1cccc(C#N)c1 [Example 13],–,0.0001 µM,1 µM,–,–
CCC(COCCC1CCN(C(=O)NS(=O)(=O)c2ccc(C)cc2)CC1)n1cnc2c(N)nc3ccccc3c21 (stereo not drawn) [Example 33],–,1 µM,10 µM,–,–
CCCCc1nc2c(N)nc3ccccc3c2n1CCOCCNC(=O)N1CCOCC1 [Example 11],–,0.0001 µM,0.1 µM,–,–
CCC(COCCC1CCN(C(=O)Nc2ccc(OC)cc2OC)CC1)n1cnc2c(N)nc3ccccc3c21 (stereo not drawn) [Example 32],–,0.1 µM,1 µM,–,–
CCC(COCCC1CCN(C(=S)Nc2ccccc2)CC1)n1cnc2c(N)nc3ccccc3c21 (stereo not drawn) [Example 36],–,0.1 µM,–,*,–
CCCCc1nc2c(N)nc3ccccc3c2n1CCOCCNC(=O)NC1CCCCC1 [Example 12],–,0.0001 µM,1 µM,–,–
CCC(COCCC1CCN(C(=O)Nc2cccc(C(C)=O)c2)CC1)n1cnc2c(N)nc3ccccc3c21 (stereo not drawn) [Example 30],–,1 µM,1 µM,–,–
CCCCc1nc2c(N)nc3ccccc3c2n1CCOCCNC(=O)Nc1cccc(SC)c1 [Example 17],–,–,10 µM,–,*
CCC(COCCC1CCN(C(=O)NC(C)C)CC1)n1cnc2c(N)nc3ccccc3c21 (stereo not drawn) [Example 22],–,0.1 µM,1 µM,–,–
Nc1nc2ccccc2c2c1ncn2CCOCCNC(=O)Nc1ccccc1 [Example 38],–,10 µM,10 µM,–,–
CCC(COCCC1CCN(C(=O)Nc2ccccc2)CC1)n1cnc2c(N)nc3ccccc3c21 (stereo not drawn) [Example 24],–,0.1 µM,1 µM,–,–
N#Cc1cccc(NC(=O)NCCOCCn2cnc3c(N)nc4ccccc4c32)c1 [Example 40],–,10 µM,10 µM,–,–
CCC(COCCC1CCN(C(=O)NC2CCCCC2)CC1)n1cnc2c(N)nc3ccccc3c21 (stereo not drawn) [Example 26],–,0.1 µM,1 µM,–,–
CCCCNC(=O)NCCOCCn1c(CCCC)nc2c(N)nc3ccccc3c21 [Example 9],–,0.0001 µM,1 µM,–,–

SMILES,melting point,minimal effective concentration [1],minimal effective concentration [2],Lowest Effective Concentration (μM) Tumor Necrosis Factor [2],Lowest Effective Concentration (μM) Interferon [1]
CCCCc1nc2c(N)nc3ccccc3c2n1CCOCCNC(=O)Nc1ccccc1 [Example 10],–,0.0001 µM,10 µM,–,–
CCCCc1nc2c(N)nc3ccccc3c2n1CCOCCNC(=O)NS(=O)(=O)c1ccc(Cl)cc1 [Example 21],–,1 µM,10 µM,–,–
CCC(COCCC1CCN(C(=O)N[C@@H]2C[C@H]2c2ccccc2)CC1)n1cnc2c(N)nc3ccccc3c21 (stereo partly drawn) [Example 29],–,0.1 µM,1 µM,–,–
Nc1nc2ccccc2c2c1ncn2CCOCCNC(=O)NS(=O)(=O)c1ccccc1 [Example 44],–,–,–,*,*
CCCCNC(=O)N1CCC(CCOCC(CC)n2cnc3c(N)nc4ccccc4c32)CC1 (stereo not drawn) [Example 23],–,1 µM,1 µM,–,–
CCCCc1nc2c(N)nc3ccccc3c2n1CCOCCNC(=O)NC(C)C [Example 7],–,0.0001 µM,10 µM,–,–
CCCCc1nc2c(N)nc3ccccc3c2n1CCOCCNC(=O)NS(=O)(=O)c1ccccc1 [Example 19],–,0.1 µM,10 µM,–,–
CCCCc1nc2c(N)nc3ccccc3c2n1CCOCCNC(=O)N[C@H]1C[C@@H]1c1ccccc1 [Example 15],–,0.0001 µM,0.1 µM,–,–
CC(C)(C)NC(=O)NCCOCCn1cnc2c(N)nc3ccccc3c21 [Example 37],–,10 µM,10 µM,–,–
CCCCc1nc2c(N)nc3ccccc3c2n1CCOCCNC(=O)NC(C)(C)C [Example 8],–,0.0001 µM,10 µM,–,–
CCC(COCCC1CCN(C(=O)N2CCOCC2)CC1)n1cnc2c(N)nc3ccccc3c21 (stereo not drawn) [Example 25],–,0.1 µM,1 µM,–,–
COc1ccc(NC(=O)NCCOCCn2cnc3c(N)nc4ccccc4c32)c(OC)c1 [Example 43],–,10 µM,10 µM,–,–
Nc1nc2ccccc2c2c1ncn2CCOCCNC(=O)N[C@@H]1C[C@H]1c1ccccc1 [Example 42],–,10 µM,–,*,–
CCCCc1nc2c(N)nc3ccccc3c2n1CCOCCNC(=O)NS(=O)(=O)c1ccc(C)cc1 [Example 20],–,0.01 µM,10 µM,–,–
CCCCc1nc2c(N)nc3ccccc3c2n1CCOCCNC(=O)Nc1cccc(OC)c1 [Example 14],–,0.0001 µM,10 µM,–,–
CCC(COCCC1CCN(C(=S)NC(=O)c2ccco2)CC1)n1cnc2c(N)nc3ccccc3c21 (stereo not drawn) [Example 35],–,1 µM,1 µM,–,–
CCCCc1nc2c(N)nc3ccccc3c2n1CCOCCNC(=O)Nc1ccc(OC)cc1OC [Example 18],–,1 µM,–,*,–
CCC(COCCC1CCN(C(=O)NS(=O)(=O)c2ccc(Cl)cc2)CC1)n1cnc2c(N)nc3ccccc3c21 (stereo not drawn) [Example 34],–,1 µM,10 µM,–,–
COc1cccc(NC(=O)NCCOCCn2cnc3c(N)nc4ccccc4c32)c1 [Example 41],–,10 µM,10 µM,–,–
CCC(COCCC1CCN(C(=O)Nc2cccc(C#N)c2)CC1)n1cnc2c(N)nc3ccccc3c21 (stereo not drawn) [Example 27],–,0.1 µM,1 µM,–,–
